Data published in article PMC10141580, “Cyclic Dichalcogenides Extend the Reach of Bioreductive Prodrugs to Harness Thiol/Disulfide Oxidoreductases: Applications to seco-Duocarmycins Targeting the Thioredoxin System” (ACS Central Science, 2023).
Where “and” joins values, the source holds several entries; their conditions need not be identical. Identical values can stand only once. Like-named read-outs stand apart in the source and are kept apart here.

System: panel of 140 standard cancer cell lines
Assay: ProliFiler-140 cancer cell line screen (CellTiterGlo, 72 h)
Format: cell-based
Method: Incubations were performed for 72 h before automated viability readout with CellTiterGlo (Figure 8).
End of Figure S11 (part 5 of 5): ProliFiler-140 cancer cell line screening for cytotoxicity of the prodrugs.
8-data-point dose response curves from CellTiter-Glo® viability readout.
ProliFiler-140 cell line panel part V

For `COc1cc2cc(C(=O)N3C[C@@H](CCl)c4c3cc(OC(=O)N(CCC(=O)N3CCN(C)CC3)C3CCCCC3)c3ccccc43)[nH]c2c(OC)c1OC` [P-CC60-CBI-TMI], the IC50 (786-O (Kidney), read-out: IC50 [M] (ProliFiler-140)) was 1.18e-07 M and 1.2e-07 M, the IC50 (786-O, read-out: IC50) was 1.2e-07 M and the IC50 (A172 (Brain), read-out: IC50 [M] (ProliFiler-140)) was 5.74e-07 M and 5.7e-07 M. The IC50 (A375 (Skin), read-out: IC50 [M] (ProliFiler-140)) was 1.64e-07 M and 1.6e-07 M, the IC50 (A427 (Lung), read-out: IC50 [M] (ProliFiler-140)) was 8.2e-07 M and 8.23e-07 M and the IC50 (A431 (Skin), read-out: IC50 [M] (ProliFiler-140)) was 2.62e-07 M and 2.6e-07 M. The IC50 (A498 (Kidney), read-out: IC50 [M] (ProliFiler-140)) was 3e-07 M, the IC50 (A498, read-out: IC50) was 3e-07 M and the IC50 (A549 (Lung), read-out: IC50 [M] (ProliFiler-140)) was 7.7e-07 M. For the same molecule, the IC50 (A549, read-out: IC50) was 7.7e-07 M, the IC50 (A2058 (Skin), read-out: IC50 [M] (ProliFiler-140)) was 1e-07 M and 1.02e-07 M and the IC50 (A2780 (Ovary), read-out: IC50 [M] (ProliFiler-140)) was 8.9e-08 M and 8.89e-08 M. For the same molecule, the IC50 (AsPC-1 (Pancreas), read-out: IC50 [M] (ProliFiler-140)) was 2.1e-06 M and 2.15e-06 M, the IC50 (BEN (Lung), read-out: IC50 [M] (ProliFiler-140)) was 1.4e-06 M and 1.42e-06 M and the IC50 (BT-20 (Breast), read-out: IC50 [M] (ProliFiler-140)) was 1.1e-06 M and 1.11e-06 M. The IC50 (BxPC-3 (Pancreas), read-out: IC50 [M] (ProliFiler-140)) was 6.62e-07 M and 6.6e-07 M, the IC50 (CAKI-1, read-out: IC50) was 3.3e-07 M and the IC50 (COR-L279 (Lung), read-out: IC50 [M] (ProliFiler-140)) was 7.4e-08 M and 7.36e-08 M. For the same molecule, the IC50 (COV434 (Ovary), read-out: IC50 [M] (ProliFiler-140)) was 1.1e-07 M and 1.15e-07 M, the IC50 (Caki-1 (Kidney), read-out: IC50 [M] (ProliFiler-140)) was 3.29e-07 M and 3.3e-07 M and the IC50 (Caki-2 (Kidney), read-out: IC50 [M] (ProliFiler-140)) was 1.51e-06 M and 1.5e-06 M. The IC50 (Calu-6 (Lung), read-out: IC50 [M] (ProliFiler-140)) was 3.42e-07 M and 3.4e-07 M, the IC50 (Colo 205 (Colon), read-out: IC50 [M] (ProliFiler-140)) was 7.6e-07 M and 7.61e-07 M and the IC50 (DLD-1 (Colon), read-out: IC50 [M] (ProliFiler-140)) was 7.91e-07 M and 7.9e-07 M. The IC50 (DU-145 (Prostate), read-out: IC50 [M] (ProliFiler-140)) was 1.8e-07 M and 1.83e-07 M, the IC50 (DV90 (Lung), read-out: IC50 [M] (ProliFiler-140)) was 9e-08 M and 9.04e-08 M and the IC50 (Detroit562 (Head/Neck), read-out: IC50 [M] (ProliFiler-140)) was 3.15e-07 M and 3.2e-07 M. The IC50 (EFM-19 (Breast), read-out: IC50 [M] (ProliFiler-140)) was 9.6e-07 M and 9.62e-07 M, the IC50 (EFM-192A (Breast), read-out: IC50 [M] (ProliFiler-140)) was 1.8e-06 M and 1.78e-06 M and the IC50 (EFO-27 (Ovary), read-out: IC50 [M] (ProliFiler-140)) was 9e-07 M. The IC50 (EPLC-272H (Lung), read-out: IC50 [M] (ProliFiler-140)) was 5.08e-07 M and 5.1e-07 M, the IC50 (H4 (Brain), read-out: IC50 [M] (ProliFiler-140)) was 8.08e-08 M and 8.1e-08 M and the IC50 (H460 (Lung), read-out: IC50 [M] (ProliFiler-140)) was 5.1e-08 M and 5.12e-08 M. The IC50 (H1299 (Lung), read-out: IC50 [M] (ProliFiler-140)) was 7.27e-07 M and 7.3e-07 M, the IC50 (H2228 (Lung), read-out: IC50 [M] (ProliFiler-140)) was 3.99e-07 M and 4e-07 M and the IC50 (HCC38 (Breast), read-out: IC50 [M] (ProliFiler-140)) was 1.65e-07 M and 1.7e-07 M. For the same molecule, the IC50 (HCC202 (Breast), read-out: IC50 [M] (ProliFiler-140)) was 9e-07 M and 8.97e-07 M, the IC50 (HCC827 (Lung), read-out: IC50 [M] (ProliFiler-140)) was 1.4e-06 M and 1.38e-06 M and the IC50 (HCC 1569 (Breast), read-out: IC50 [M] (ProliFiler-140)) was 9.9e-07 M and 9.93e-07 M. For the same molecule, the IC50 (HCT116 (Colon), read-out: IC50 [M] (ProliFiler-140)) was 4.41e-07 M and 4.4e-07 M, the IC50 (HCT116, read-out: IC50) was 4.4e-07 M and the IC50 (HCT-15 (Colon), read-out: IC50 [M] (ProliFiler-140)) was 5.46e-07 M and 5.5e-07 M. The IC50 (HCT-15, read-out: IC50) was 5.5e-07 M, the IC50 (HEC-1-A (Endometrium), read-out: IC50 [M] (ProliFiler-140)) was 1.8e-06 M and 1.84e-06 M and the IC50 (HEC-1-B (Endometrium), read-out: IC50 [M] (ProliFiler-140)) was 3.3e-06 M and 3.29e-06 M. The IC50 (HL-60 (Blood), read-out: IC50 [M] (ProliFiler-140)) was 1e-07 M and 1.01e-07 M, the IC50 (HL-60, read-out: IC50) was 1e-07 M and the IC50 (HT-29 (Colon), read-out: IC50 [M] (ProliFiler-140)) was 1e-06 M and 9.98e-07 M. For the same molecule, the IC50 (HT-29, read-out: IC50) was 1e-06 M, the IC50 (HT-1080 (Fibrosarcoma), read-out: IC50 [M] (ProliFiler-140)) was 3.2e-07 M and the IC50 (Hep3B2.1-7 (Liver), read-out: IC50 [M] (ProliFiler-140)) was 1.3e-06 M and 1.34e-06 M. The IC50 (Hs 746T (Stomach), read-out: IC50 [M] (ProliFiler-140)) was 9.9e-07 M and 9.89e-07 M, the IC50 (HuH7 (Liver), read-out: IC50 [M] (ProliFiler-140)) was 6.47e-07 M and 6.5e-07 M and the IC50 (Hutu 80 (Duodenum), read-out: IC50 [M] (ProliFiler-140)) was 5.37e-08 M and 5.4e-08 M. For the same molecule, the IC50 (Ishikawa (Endometrium), read-out: IC50 [M] (ProliFiler-140)) was 2.6e-08 M and 2.61e-08 M, the IC50 (J82 (Bladder), read-out: IC50 [M] (ProliFiler-140)) was 7.2e-07 M and the IC50 (JIMT-1 (Breast), read-out: IC50 [M] (ProliFiler-140)) was 1.6e-06 M. For the same molecule, the IC50 (JVM-3 (Blood), read-out: IC50 [M] (ProliFiler-140)) was 3.14e-08 M and 3.1e-08 M, the IC50 (Jurkat (Blood), read-out: IC50 [M] (ProliFiler-140)) was 9.37e-08 M and 9.4e-08 M and the IC50 (K562 (Blood), read-out: IC50 [M] (ProliFiler-140)) was 1.1e-06 M and 1.11e-06 M. For the same molecule, the IC50 (KARPAS 299 (Blood), read-out: IC50 [M] (ProliFiler-140)) was 7.07e-07 M and 7.1e-07 M, the IC50 (KG-1 (Blood), read-out: IC50 [M] (ProliFiler-140)) was 6.22e-07 M and 6.2e-07 M and the IC50 (KG-1 a (Blood), read-out: IC50 [M] (ProliFiler-140)) was 5.5e-07 M. For the same molecule, the IC50 (KMS-12-BM (Blood), read-out: IC50 [M] (ProliFiler-140)) was 3.43e-07 M and 3.4e-07 M, the IC50 (Kato III (Stomach), read-out: IC50 [M] (ProliFiler-140)) was 1.6e-06 M and 1.62e-06 M and the IC50 (LN229 (Brain), read-out: IC50 [M] (ProliFiler-140)) was 7.23e-07 M and 7.2e-07 M. The IC50 (LOU-NH91 (Lung), read-out: IC50 [M] (ProliFiler-140)) was 3.1e-07 M and 3.07e-07 M, the IC50 (LOVO (Colon), read-out: IC50 [M] (ProliFiler-140)) was 2.22e-07 M and 2.2e-07 M and the IC50 (LP-1 (Blood), read-out: IC50 [M] (ProliFiler-140)) was 7.2e-07 M and 7.16e-07 M. The IC50 (LnCap (Prostate), read-out: IC50 [M] (ProliFiler-140)) was 8.9e-07 M and 8.94e-07 M, the IC50 (M07e (Blood), read-out: IC50 [M] (ProliFiler-140)) was 1.38e-07 M and 1.4e-07 M and the IC50 (MCAS (Ovary), read-out: IC50 [M] (ProliFiler-140)) was 8.2e-07 M and 8.18e-07 M. The IC50 (MCF-7 (Breast), read-out: IC50 [M] (ProliFiler-140)) was 2.1e-07 M and 2.15e-07 M, the IC50 (MDA MB 231 (Breast), read-out: IC50 [M] (ProliFiler-140)) was 7.4e-07 M and the IC50 (MDA MB 435 (Skin), read-out: IC50 [M] (ProliFiler-140)) was 1.1e-06 M and 1.08e-06 M. The IC50 (MDA-MB-468 (Breast), read-out: IC50 [M] (ProliFiler-140)) was 1.5e-07 M and 1.48e-07 M.
